Reference: US5919668A, “Non-reducing saccharide and its production and use” (Kabushiki Kaisha Hayashibara Seibutsu Kagaku Kenkyujo, priority 1994, dated 1999)
“Also recorded” adds a separate entry of the source.

Key:
[1] = tested on: pig pancreas alpha-amylase; assay: Degradation by pig pancreas alpha-amylase; assay type: biochemical; details: for G1 (glucose) in degradation product by alpha-amylase / G2 (maltose) in degradation product by alpha-amylase / G3 (maltotriose) in degradation product by alpha-amylase / PI in degradation product by alpha-amylase / PII in degradation product by alpha-amylase: pH6.9, 37° C., 18 hours
Description: (§1) The non-reducing saccharide preparations PI, PII, PIII, PIV and PV as substrates prepared in Experiment 4 were subjected to pig pancreas alpha-amylase, rice alpha-glucosidase and acetone-pulverized rat small intestine enzyme, all of which were products of Sigma Chemical Co., St Louis, Mo., USA, and the degradation products were analyzed on high-performance liquid chromatography for saccharide composition. The reaction by alpha-amylase was carried out by dissolving 10 mg of either substrate in 1 ml of 50 mM phosphate buffer (pH6.9), adding thereto one unit of alpha-amylase and incubating at 37° C. for 18 hours. The reaction by alpha-glucosidase was conducted similarly as in the case of alpha-amylase except that 50 mM acetate buffer (pH4.0) was used. In the case of acetone-pulverized rat small intestine enzyme, the reaction was conducted similarly as in the case of alpha-amylase except that 50 mM maleic acid buffer (pH6.0) was used.

glucoamylase = assay: Enzymatic hydrolysis by glucoamylase; assay type: biochemical; details: for Molar ratio (glucose/trehalose): degradation product by glucoamylase; for Glucose in degradation product by glucoamylase / Trehalose in degradation product by glucoamylase: pH4.5, 40° C., 6 hours
Description: Fifty milligrams of the non-reducing saccharide preparation PI, PII, PIII, PIV or PV prepared in Experiment 4 was dissolved in 1 ml of 50 mM acetate buffer (pH4.5), added with one unit of the glucoamylase commercialized by Seikagaku Corp., Tokyo, Japan, incubated at 40° C. for 6 hours for enzymatic hydrolysis and analyzed for degradation products on high-performance liquid chromatography, thus detecting glucose and trehalose as sole products. The noted glucose contents, trehalose contents and their molar ratios were as shown in Table 5.

[2] = tested on: acetone-pulverized rat small intestine enzyme; assay: Degradation by acetone-pulverized rat small intestine enzyme; assay type: biochemical; details: for Glucose in degradation product by acetone-powdered rat small intestine enzyme / Others in degradation product by acetone-powdered rat small intestine enzyme / Trehalose in degradation product by acetone-powdered rat small intestine enzyme: pH6.0, 37° C., 18 hours
Description: as §1

[3] = Maillard reaction (coloration with glycine, absorbance at 480 nm); assay type: physicochemical; details: for Coloration degree at 480 nm: 10% saccharide, 1% glycine, 50 mM phosphate buffer pH7.0, 100° C., 90 minutes, 1 cm cuvette; for Coloration degree relative to maltooligosaccharides as material: 480 nm, with glycine
Description: Solutions of 10% saccharide preparation PI, PII, PIII, PIV or PV prepared in Experiment 4 and 1% glycine in 50 mM phosphate buffer (pH7.0) were incubated at 100° C. for 90 minuets, cooled and determined in 1 cm cuvette for absorbance at 480 nm. As control, maltotriose, maltotetraose, maltopentaose, maltohexaose and maltoheptaose which were used as the starting materials were treated similarly as above and determined for absorbance at 480 nm.
10% High-purity trehalose preparation, purity of 99.5%, obtained by the method in Experiment 17 and 1% glycine in 50 mM phosphate buffer (pH7.0) was incubated at 100° C. for 90 minutes, cooled and measured in lcm cuvette for absorbance at 480 nm. As control, glucose and maltose were treated similarly as above and then measured for absorbance at 480 nm.

beta-amylase = assay: Degradation by beta-amylase; assay type: biochemical
Text: Considering the reaction characteristics of glucoamylase, these saccharides very likely bear structures where glucose molecule(s) is bound to trehalose molecule via alpha1,4 or alpha-1,6 linkage: Saccharide PI is a non-reducing saccharide with a glucose polymerization degree of 3 where one glucose molecule is bound to one trehalose molecule; saccharide PII, another non-reducing saccharide with a glucose polymerization degree of 4 where two glucose molecules are bound to one trehalose molecule; saccharide PIII, still another non-reducing saccharide with a glucose polymerization degree of 5 where three glucose molecules are bound to one trehalose molecule; saccharide PIV, still another non-reducing saccharide with a glucose polymerization degree of 6 where four glucose molecules are bound to one trehalose molecule; and saccharide PV, still another non-reducing saccharide with a polymerization degree of 7 where five glucose molecules are bound to one trehalose molecule.

pig kidney trehalase = assay: Degradation by pig kidney trehalase; assay type: biochemical; details: trehalose, or trehalose formed from PI-PV; pH5.7, 37° C., 18 hours for the latter
Description: In order to purify trehalose from respective reaction products, they were decolored, deionized, concentrated and subjected to column fractionation on a strongly-acidic cation exchange of sodium form "XT-1016", followed by recovering high-purity fractions with trehalose contents of 97% or higher. The fractions were then concentrated to about 65% and allowed to standing at 25° C. for 2 days to crystallize out crystalline trehalose hydrate which was then separated and dried in vacuo to obtain a high-purity preparation with a trehalose content of 99% or higher. The yields against respective starting substrates on dry solid basis were as follows: from glycosyl trehalose, 9.5%; from maltosyl trehalose, 14.9%; from maltotriosyl trehalose, 16.0%; from maltotetraosyl trehalose, 18.5%; and from maltopentaosyl trehalose, 17.7%. […] As evident from the above results, the saccharides formed by subjecting alpha-glycosyl trehaloses to the trehalose-releasing enzyme were identified to be trehalose.

mice = assay: Acute toxicity test, oral administration in mice; assay type: in vivo; details: for Animal death at the possible highest dose: oral, mice; for LD50: mouse, in vivo, po
Description: Acute toxicity tests were conducted on the non-reducing saccharide preparations PI, PII, PIII, PIV and PV prepared in Experiment 4, where they were orally administered to 7 week-old dd mice. […] Thus the LD50 of these saccharides was at least 50 g/kg or higher.
An acute toxicity test was conducted on a high-purity trehalose preparation obtained by the method in Experiment 17, purity of 99.5%, where it was orally administered in mice. […] Thus its LD50 would be briefly 50 g/kg or higher.

[4] = Reducing power by the Somogyi-Nelson method, represented in terms of DE; assay type: physicochemical; details: high-purity preparations, Somogyi-Nelson method
Description: The high-purity preparations of the newly formed saccharides were determined for reducing power by the Somogyi-Nelson method and represented in terms of DE.

| SMILES | Degradation by alpha-amylase (in words) [1] | G1 (glucose) in degradation product by alpha-amylase [1] [%] | G2 (maltose) in degradation product by alpha-amylase [1] [%] | G3 (maltotriose) in degradation product by alpha-amylase [1] [%] | PI in degradation product by alpha-amylase [1] [%] | PII in degradation product by alpha-amylase [1] [%] | Degradation by glucoamylase (in words) (glucoamylase) | Molar ratio (glucose/trehalose) (glucoamylase) | Glucose in degradation product by glucoamylase (glucoamylase) [%] | Trehalose in degradation product by glucoamylase (glucoamylase) [%] | Degradation by acetone-pulverized rat small intestine enzyme (in words) [2] | Glucose in degradation product by acetone-powdered rat small intestine enzyme [2] [%] | Others in degradation product by acetone-powdered rat small intestine enzyme [2] [%] | Trehalose in degradation product by acetone-powdered rat small intestine enzyme [2] [%] | Coloration degree at 480 nm [3] | Coloration degree relative to maltooligosaccharides as material [3] | Degradation by beta-amylase (in words) (beta-amylase) | Degradation by pig kidney trehalase (in words) (pig kidney trehalase) | Animal death at the possible highest dose (mice) | DE of saccharide preparation [4] | also measured |
| --- | --- | --- | --- | --- | --- | --- | --- | --- | --- | --- | --- | --- | --- | --- | --- | --- | --- | --- | --- | --- | --- |
| OC[C@H]1O[C@H](O[C@H]2O[C@H](CO)[C@@H](O[C@H]3O[C@H](CO)[C@@H](O)[C@H](O)[C@H]3O)[C@H](O)[C@H]2O)[C@H](O)[C@@H](O)[C@@H]1O [PI, alpha-glucosyl trehalose] | hardly degraded by alpha-amylase | 0 | 0.4 | 2.3 | 97.3 | 0 | degraded by glucoamylase into one glucose molecule and one trehalose molecule | 1.07 | 36.2 | 63.8 | degradable | 37.2 | 0.4 | 62.4 | 0.027 | 3-6% | not degraded | degradable into glucose by the trehalase | no animal death was observed | 0.83 | – |
| OC[C@H]1O[C@H](O[C@H]2O[C@H](CO)[C@@H](O[C@H]3O[C@H](CO)[C@@H](O[C@H]4O[C@H](CO)[C@@H](O[C@H]5O[C@H](CO)[C@@H](O[C@H]6O[C@H](CO)[C@@H](O[C@H]7O[C@H](CO)[C@@H](O)[C@H](O)[C@H]7O)[C@H](O)[C@H]6O)[C@H](O)[C@H]5O)[C@H](O)[C@H]4O)[C@H](O)[C@H]3O)[C@H](O)[C@H]2O)[C@H](O)[C@@H](O)[C@@H]1O [PV, alpha-maltopentaosyl trehalose] | degraded by alpha-amylase into smaller oligosaccharides; also recorded: yields non-reducing saccharide PII and maltotriose as predominant products | 1.0 | 8.6 | 35.3 | 10.2 | 44.9 | five glucose molecules and one trehalose molecule | 5.11 | 72.9 | 27.1 | degradable | 73.4 | 0.1 | 26.5 | – | 3-6% | two maltose molecules and one saccharide PI molecule | degradable into glucose by the trehalase | no animal death was observed | 0.23 | LD50 (mice): at least 50 g/kg |
| OC[C@H]1O[C@H](O[C@H]2O[C@H](CO)[C@@H](O[C@H]3O[C@H](CO)[C@@H](O[C@H]4O[C@H](CO)[C@@H](O[C@H]5O[C@H](CO)[C@@H](O[C@H]6O[C@H](CO)[C@@H](O)[C@H](O)[C@H]6O)[C@H](O)[C@H]5O)[C@H](O)[C@H]4O)[C@H](O)[C@H]3O)[C@H](O)[C@H]2O)[C@H](O)[C@@H](O)[C@@H]1O [PIV, alpha-maltotetraosyl trehalose] | degraded by alpha-amylase into smaller oligosaccharides | 1.6 | 7.5 | 40.4 | 47.2 | 3.3 | four glucose molecules and one trehalose molecule | 4.09 | 68.3 | 31.7 | degradable | 68.8 | 0.4 | 30.8 | – | 3-6% | one maltose molecules and one saccharide PII molecule | degradable into glucose by the trehalase | no animal death was observed | 0.27 | LD50 (mice): at least 50 g/kg |
| OC[C@H]1O[C@H](O[C@H]2O[C@H](CO)[C@@H](O[C@H]3O[C@H](CO)[C@@H](O[C@H]4O[C@H](CO)[C@@H](O)[C@H](O)[C@H]4O)[C@H](O)[C@H]3O)[C@H](O)[C@H]2O)[C@H](O)[C@@H](O)[C@@H]1O [PII, alpha-maltosyl trehalose] | hardly degraded by alpha-amylase | 0 | 0.8 | 0.4 | 0 | 98.8 | two glucose molecules and one trehalose molecule; also recorded: one trehalose molecule and two glucose molecules | 2.06 | 52.0 | 48.0 | degradable | 52.5 | 0.4 | 47.1 | 0.018 | 3-6% | not degraded | degradable into glucose by the trehalase | no animal death was observed | 0.35 | – |
